Assay results: DBAASP
≈ marks a conversion by molar mass, not a printed value. Each block holds one compound with its values, some of them ahead of it.

Experiments:
Test in all cases: ≥ marks a high value that may be exact or a test limit, other limits are often not marked, values filed in µg/mL are converted to µM
[1] = system: Escherichia coli CGMCC 1.8732
[2] = system: Staphylococcus epidermidis CGMCC 1.4260
[3] = system: Staphylococcus aureus CGMCC 1.8721
[4] = system: Klebsiella pneumoniae CGMCC 1.1736
[5] = system: Bacillus subtilis CGMCC 1.3376
[6] = system: Pseudomonas aeruginosa CGMCC 1.2421
[7] = system: Bacillus subtilis ATCC 23857
[8] = system: Staphylococcus aureus ATCC 25923(GenR)
[9] = system: Staphylococcus aureus NCTC 10788
[10] = system: Klebsiella pneumoniae ATCC 700603
[11] = system: Escherichia coli NCTC 10418
[12] = system: Escherichia coli ATCC 25922(RifR)
[13] = system: Staphylococcus aureus NCTC 12493
[14] = system: Staphylococcus aureus ATCC 25923(RifR)
[15] = system: Candida albicans NCPF 1467
[16] = system: Escherichia coli ATCC 25922(GenR)
[17] = system: Pseudomonas aeruginosa ATCC 27853
[18] = system: Enterococcus faecalis NCTC 12697
Pseudomonas fluorescens = system: Pseudomonas fluorescens
[19] = system: Bacillus magaterium AB90008
[20] = system: Enterobacter cloacae AB2010162
Pseudomonas putida = system: Pseudomonas putida
[21] = system: Klebsiella oxytoca AB2010143
[22] = system: Salmonella enterica AB2010185
[23] = system: Micrococcus luteus AB2010179
[24] = system: Staphylococcus aureus AB94004
[25] = system: Escherichia coli DH5alpha
[26] = system: Acinetobacter baumannii Q12-0809
[27] = system: Pseudomonas aeruginosa PAO1
[28] = system: Klebsiella pneumoniae NCTC 13442
Escherichia coli = system: Escherichia coli
[29] = system: Campylobacter jejuni NCTC 11351
[30] = system: Staphylococcus aureus MRSA-15
[31] = system: Pseudomonas aeruginosa Q12-0581
[32] = system: Acinetobacter baumannii Q13-0717
[33] = system: Staphylococcus aureus Q14-0320
Escherichia coli K-12 = system: Escherichia coli K-12
[34] = system: Klebsiella pneumoniae Q14-0095
[35] = system: Staphylococcus aureus RN4220
[36] = system: Listeria monocytogenes NCTC 11994
[37] = system: Staphylococcus aureus ATCC 29213
[38] = system: Acinetobacter baumannii Q12-0867
Campylobacter jejuni = system: Campylobacter jejuni
[39] = system: Pseudomonas aeruginosa Q14-0890
[40] = system: Salmonella typhimurium SL1344
[41] = system: Pseudomonas aeruginosa Q14-0208
[42] = system: Enterococcus faecalis JH-2-2

MIC [1]: 12.5 µM (≈ 30.4 µg/mL)
MIC [2]: 6.25 µM (≈ 15.2 µg/mL)
MIC [3]: 25 µM (≈ 60.9 µg/mL)
MIC [4]: 25 µM (≈ 60.9 µg/mL)
MIC [5]: 3.13 µM (≈ 7.62 µg/mL)
MIC [6]: 12.5 µM (≈ 30.4 µg/mL)
SMILES: CC[C@H](C)[C@H](NC(=O)[C@H](C)N)C(=O)NCC(=O)N[C@@H](CO)C(=O)N[C@H](C(=O)N[C@@H](CC(C)C)C(=O)NCC(=O)N[C@@H](C)C(=O)N[C@@H](CC(C)C)C(=O)N[C@@H](C)C(=O)N[C@@H](CCCCN)C(=O)NCC(=O)N[C@@H](CC(C)C)C(=O)N1CCC[C@H]1C(=O)N[C@H](C(=O)N[C@@H](CC(C)C)C(=O)N[C@@H](CCCN=C(N)N)C(=O)N[C@@H](CO)C(=O)N[C@@H](Cc1c[nH]c2ccccc12)C(=O)N[C@H](C(=O)N[C@@H](CCCCN)C(=O)N[C@@H](CC(N)=O)C(=O)N[C@@H](CCCN=C(N)N)C(N)=O)[C@@H](C)CC)[C@@H](C)O)[C@@H](C)CC [AIGSILGALAKGLPTLRSWIKNR]

MIC [7]: 4 µM (≈ 5.53 µg/mL)
MIC [8]: 8 µM (≈ 11.1 µg/mL)
MIC [9]: 2 µM (≈ 2.77 µg/mL)
MIC [10]: > 128 µM
MIC [11]: 16 µM (≈ 22.1 µg/mL)
MIC [12]: ≥ 32 µM
MIC [13]: 4 µM (≈ 5.53 µg/mL)
MIC [14]: 16 µM (≈ 22.1 µg/mL)
MIC [15]: 4 µM (≈ 5.53 µg/mL)
MIC [16]: ≥ 32 µM
MIC [17]: 128 µM (≈ 177 µg/mL)
MIC [18]: 8 µM (≈ 11.1 µg/mL)
SMILES: CC[C@H](C)[C@H](NC(=O)[C@@H]1CCCN1C(=O)[C@H](CC(C)C)NC(=O)[C@@H](N)Cc1ccccc1)C(=O)N[C@H](C(=O)N[C@@H](C)C(=O)N[C@@H](CCCCN)C(=O)N[C@@H](CC(C)C)C(=O)N[C@@H](CC(C)C)C(=O)N[C@@H](CO)C(=O)NCC(=O)N[C@@H](CC(C)C)C(=O)N[C@@H](CC(C)C)C(N)=O)C(C)C [FLPIVAKLLSGLL]

MIC (Pseudomonas fluorescens): ≥ 40 µM
MIC [19]: 30 µM (≈ 77.3 µg/mL)
MIC [20]: ≥ 45 µM
MIC (Pseudomonas putida): 20 µM (≈ 51.5 µg/mL)
MIC [21]: ≥ 45 µM
MIC [22]: 30 µM (≈ 77.3 µg/mL)
MIC [23]: 15.8 µM (≈ 40.7 µg/mL)
MIC [24]: 5.6 µM (≈ 14.4 µg/mL)
MIC [25]: 15.8 µM (≈ 40.7 µg/mL)
SMILES: CC[C@H](C)[C@H](NC(=O)[C@H](CC(C)C)NC(=O)[C@H](CCCCN)NC(=O)[C@H](CC(C)C)NC(=O)[C@H](C)NC(=O)CNC(=O)[C@H](CCCCN)NC(=O)[C@H](C)NC(=O)[C@H](CC(C)C)NC(=O)[C@H](C)NC(=O)CNC(=O)[C@H](Cc1c[nH]c2ccccc12)NC(=O)[C@@H](N)Cc1ccccc1)C(=O)N1CCC[C@H]1C(=O)N[C@@H](CO)C(=O)N[C@@H](CC(C)C)C(=O)N[C@H](C(=O)N[C@@H](CO)C(=O)N[C@@H](CO)C(=O)N[C@@H](Cc1ccccc1)C(=O)N[C@H](C(=O)N[C@@H](CCCCN)C(=O)N[C@@H](CCCCN)C(=O)N[C@@H](CC(=O)O)C(N)=O)[C@@H](C)O)C(C)C [FWGALAKGALKLIPSLVSSFTKKD]

MIC [26]: 13.4 µM (≈ 32 µg/mL)
MIC [27]: 214 µM (≈ 512 µg/mL)
MIC [28]: ≥ 53.4 µM
MIC (Escherichia coli): > 53.4 µM
MIC [29]: ≥ 53.4 µM
MIC [10]: 26.7 µM (≈ 64 µg/mL)
MIC [30]: ≥ 104 µM
MIC [13]: 6.68 µM (≈ 16 µg/mL)
MIC [31]: ≥ 53.4 µM
MIC [32]: 26.7 µM (≈ 64 µg/mL)
MIC [33]: 26.7 µM (≈ 64 µg/mL)
MIC (Escherichia coli K-12): ≥ 107 µM
MIC [34]: ≥ 53.4 µM
MIC [35]: ≥ 107 µM
MIC [36]: ≥ 53.4 µM
MIC [37]: 26.7 µM (≈ 64 µg/mL)
MIC [38]: 6.68 µM (≈ 16 µg/mL)
MIC (Campylobacter jejuni): ≥ 53.4 µM
MIC [17]: 53.4 µM (≈ 128 µg/mL)
MIC [39]: 13.4 µM (≈ 32 µg/mL)
MIC [40]: ≥ 107 µM
MIC [41]: 26.7 µM (≈ 64 µg/mL)
MIC [42]: ≥ 107 µM
SMILES: CC(C)[C@H](NC(=O)[C@@H](N)CCC(N)=O)C(=O)N[C@@H](CCCN=C(N)N)C(=O)N[C@@H](Cc1c[nH]c2ccccc12)C(=O)N[C@@H](Cc1c[nH]c2ccccc12)C(=O)NCC(=O)N[C@@H](CCCN=C(N)N)C(=O)N[C@@H](Cc1ccc(O)cc1)C(=O)N[C@@H](Cc1c[nH]c2ccccc12)C(=O)N[C@@H](CCCN=C(N)N)C(=O)N[C@@H](CCCN=C(N)N)C(=O)N[C@@H](CCCCN)C(=O)N[C@@H](Cc1c[nH]c2ccccc12)C(=O)N[C@@H](C)C(=O)N[C@H](C(=O)N[C@@H](CS)C(=O)N[C@@H](CCCN=C(N)N)C(=O)O)[C@@H](C)O [QVRWWGRYWRRKWATCR]
